Test results published in ChEMBL document CHEMBL1143624, “1-(5-Chloro-2-alkoxyphenyl)-3-(5-cyanopyrazin-2-yl)ureas [correction of cyanopyrazi] as potent and selective inhibitors of Chk1 kinase: synthesis, preliminary SAR, and biological activities” (J Med Chem, 2005).

Assays:
[1] = molecular target: MAP/microtubule affinity-regulating kinase 3 (Homo sapiens, UniProt P27448); assay: Inhibition of MAP/microtubule affinity-regulating kinase 3 (cTak1)
[2] = molecular target: Protein kinase C delta type (Homo sapiens, UniProt Q05655); assay: Inhibition of Protein kinase C delta (PKCdelta)
Sequence of Protein kinase C delta type (Q05655 whole entry): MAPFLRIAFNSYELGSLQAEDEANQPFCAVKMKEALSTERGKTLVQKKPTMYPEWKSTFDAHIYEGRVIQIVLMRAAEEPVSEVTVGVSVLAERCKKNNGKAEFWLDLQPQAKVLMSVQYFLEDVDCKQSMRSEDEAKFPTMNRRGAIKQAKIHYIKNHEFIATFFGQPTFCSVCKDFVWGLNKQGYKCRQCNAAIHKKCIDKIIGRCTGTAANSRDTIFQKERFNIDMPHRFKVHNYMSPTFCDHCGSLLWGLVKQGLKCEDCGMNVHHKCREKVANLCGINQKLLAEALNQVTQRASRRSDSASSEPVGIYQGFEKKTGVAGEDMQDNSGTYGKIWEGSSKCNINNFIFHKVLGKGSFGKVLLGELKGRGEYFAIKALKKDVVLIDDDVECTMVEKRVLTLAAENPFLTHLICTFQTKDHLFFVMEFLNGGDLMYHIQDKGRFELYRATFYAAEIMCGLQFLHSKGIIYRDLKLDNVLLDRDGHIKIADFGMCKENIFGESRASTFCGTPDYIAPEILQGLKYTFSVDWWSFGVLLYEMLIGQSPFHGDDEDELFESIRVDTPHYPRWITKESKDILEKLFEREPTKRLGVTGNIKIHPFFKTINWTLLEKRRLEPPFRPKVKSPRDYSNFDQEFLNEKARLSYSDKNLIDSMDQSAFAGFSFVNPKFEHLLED

[3] = molecular target: RAC-alpha serine/threonine-protein kinase (Homo sapiens, UniProt P31749); assay: Inhibition of Protein kinase B, alpha (Akt1)
Sequence of RAC-alpha serine/threonine-protein kinase (P31749 whole entry): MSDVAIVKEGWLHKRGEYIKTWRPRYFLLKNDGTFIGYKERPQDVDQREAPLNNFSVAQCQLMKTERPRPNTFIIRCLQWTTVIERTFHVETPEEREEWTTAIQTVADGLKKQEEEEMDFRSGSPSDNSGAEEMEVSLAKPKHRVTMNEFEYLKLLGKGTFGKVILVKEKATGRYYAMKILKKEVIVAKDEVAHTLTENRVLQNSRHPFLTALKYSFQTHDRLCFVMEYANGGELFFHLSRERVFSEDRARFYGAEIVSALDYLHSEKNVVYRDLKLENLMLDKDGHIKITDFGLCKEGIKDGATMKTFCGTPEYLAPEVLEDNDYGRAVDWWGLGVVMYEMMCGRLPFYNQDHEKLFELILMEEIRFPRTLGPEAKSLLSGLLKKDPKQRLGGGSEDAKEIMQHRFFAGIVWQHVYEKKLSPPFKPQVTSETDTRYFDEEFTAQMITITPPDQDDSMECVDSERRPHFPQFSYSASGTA

[4] = Inhibition of Protein kinase A (PKA)
[5] = molecular target: T1, Serine/threonine-protein kinase Sgk1 (Homo sapiens, UniProt O00141); assay: Inhibition of Serum/glucocorticoid regulated kinase (SGK)
T1 sequence (O00141 whole entry): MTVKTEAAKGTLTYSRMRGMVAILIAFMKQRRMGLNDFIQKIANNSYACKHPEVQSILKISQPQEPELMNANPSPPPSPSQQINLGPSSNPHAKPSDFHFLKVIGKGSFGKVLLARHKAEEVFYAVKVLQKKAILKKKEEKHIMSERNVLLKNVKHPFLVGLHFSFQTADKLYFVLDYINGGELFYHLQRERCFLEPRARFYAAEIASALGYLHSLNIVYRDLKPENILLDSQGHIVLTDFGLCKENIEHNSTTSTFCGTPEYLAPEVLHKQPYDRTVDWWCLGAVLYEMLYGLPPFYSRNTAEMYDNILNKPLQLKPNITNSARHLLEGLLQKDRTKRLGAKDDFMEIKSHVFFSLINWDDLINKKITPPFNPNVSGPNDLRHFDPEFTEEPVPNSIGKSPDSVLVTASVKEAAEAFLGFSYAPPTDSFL

HeLa [6] = assay: Anti-proliferative activity against HeLa cells; assay type: functional, cell-based; details: Homo sapiens
[7] = molecular target: Cyclin-dependent kinase 1 (Homo sapiens, UniProt P06493); assay: Inhibition of Serine/threonine kinase Cdc2 (Cdc2)
Sequence of Cyclin-dependent kinase 1 (P06493 whole entry): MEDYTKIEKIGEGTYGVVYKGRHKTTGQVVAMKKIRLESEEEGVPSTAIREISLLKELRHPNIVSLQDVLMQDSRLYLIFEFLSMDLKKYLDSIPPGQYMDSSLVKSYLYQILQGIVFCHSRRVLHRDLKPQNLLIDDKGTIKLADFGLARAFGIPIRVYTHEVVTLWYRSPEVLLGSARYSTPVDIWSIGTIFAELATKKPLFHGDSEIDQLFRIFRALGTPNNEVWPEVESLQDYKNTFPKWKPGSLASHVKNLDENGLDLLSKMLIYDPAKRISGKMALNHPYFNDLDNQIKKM

[8] = molecular target: Mitogen-activated protein kinase 1 (Homo sapiens, UniProt P28482); assay: Inhibition of Extracellular signal-regulated kinase 2 (ERK2)
Sequence of Mitogen-activated protein kinase 1 (P28482 whole entry): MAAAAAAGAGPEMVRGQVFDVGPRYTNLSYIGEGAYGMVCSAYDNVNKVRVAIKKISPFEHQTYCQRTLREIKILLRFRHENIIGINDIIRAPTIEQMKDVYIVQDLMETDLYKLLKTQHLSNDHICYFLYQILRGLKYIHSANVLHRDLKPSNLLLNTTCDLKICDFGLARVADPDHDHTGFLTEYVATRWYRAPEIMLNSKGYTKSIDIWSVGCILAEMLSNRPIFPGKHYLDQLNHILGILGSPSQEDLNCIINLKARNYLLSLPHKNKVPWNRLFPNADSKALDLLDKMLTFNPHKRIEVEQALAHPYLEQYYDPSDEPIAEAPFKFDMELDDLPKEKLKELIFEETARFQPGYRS

[9] = molecular target: T2, Serine/threonine-protein kinase Chk1 (Homo sapiens, UniProt O14757); assay: Inhibition of Serine/threonine-protein kinase Chk1
T2 sequence (O14757 whole entry): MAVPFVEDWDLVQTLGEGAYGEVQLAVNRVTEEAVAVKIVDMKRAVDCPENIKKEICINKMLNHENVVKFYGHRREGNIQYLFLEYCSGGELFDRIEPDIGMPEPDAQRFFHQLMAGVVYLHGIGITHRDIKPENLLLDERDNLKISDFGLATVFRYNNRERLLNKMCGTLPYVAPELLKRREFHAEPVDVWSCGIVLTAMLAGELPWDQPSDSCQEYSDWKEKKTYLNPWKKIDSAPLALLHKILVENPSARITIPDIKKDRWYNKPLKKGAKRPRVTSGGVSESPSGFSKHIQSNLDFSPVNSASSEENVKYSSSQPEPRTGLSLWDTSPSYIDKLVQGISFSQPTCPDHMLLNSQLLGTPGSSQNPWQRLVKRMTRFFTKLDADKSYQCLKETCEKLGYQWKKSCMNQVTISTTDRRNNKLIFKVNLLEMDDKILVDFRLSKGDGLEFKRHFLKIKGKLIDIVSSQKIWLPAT

Aurora kinase A = molecular target: T3, Aurora kinase A (Homo sapiens, UniProt O14965); assay: Inhibition of Aurora kinase A (Aur1)
T3 sequence (O14965 whole entry): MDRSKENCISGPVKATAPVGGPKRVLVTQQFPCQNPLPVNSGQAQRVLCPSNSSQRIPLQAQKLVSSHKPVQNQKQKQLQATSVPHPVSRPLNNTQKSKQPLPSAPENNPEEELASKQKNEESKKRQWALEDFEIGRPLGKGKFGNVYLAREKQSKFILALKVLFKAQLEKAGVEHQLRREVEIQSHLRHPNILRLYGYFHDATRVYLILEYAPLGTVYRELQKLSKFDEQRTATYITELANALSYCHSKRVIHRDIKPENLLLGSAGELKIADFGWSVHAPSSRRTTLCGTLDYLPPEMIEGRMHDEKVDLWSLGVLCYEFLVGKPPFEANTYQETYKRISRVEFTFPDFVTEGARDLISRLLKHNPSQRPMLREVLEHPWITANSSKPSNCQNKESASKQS

HeLa [10] = assay: Ratio of antiproliferative activities (EC50) against HeLa Cells to that with 150 nM doxorubicin; assay type: functional, Homo sapiens
[11] = Inhibition of Protein kinase C gamma (PKCgamma)
HeLa [12] = assay: Anti-proliferative activity against HeLa cells in the presence of 150 nM of doxorubicin; assay type: functional, cell-based; details: Homo sapiens
[13] = molecular target: Serine/threonine-protein kinase Chk2 (Homo sapiens, UniProt O96017); assay: Inhibition of Serine/threonine-protein kinase Chk2
Sequence of Serine/threonine-protein kinase Chk2 (O96017 whole entry): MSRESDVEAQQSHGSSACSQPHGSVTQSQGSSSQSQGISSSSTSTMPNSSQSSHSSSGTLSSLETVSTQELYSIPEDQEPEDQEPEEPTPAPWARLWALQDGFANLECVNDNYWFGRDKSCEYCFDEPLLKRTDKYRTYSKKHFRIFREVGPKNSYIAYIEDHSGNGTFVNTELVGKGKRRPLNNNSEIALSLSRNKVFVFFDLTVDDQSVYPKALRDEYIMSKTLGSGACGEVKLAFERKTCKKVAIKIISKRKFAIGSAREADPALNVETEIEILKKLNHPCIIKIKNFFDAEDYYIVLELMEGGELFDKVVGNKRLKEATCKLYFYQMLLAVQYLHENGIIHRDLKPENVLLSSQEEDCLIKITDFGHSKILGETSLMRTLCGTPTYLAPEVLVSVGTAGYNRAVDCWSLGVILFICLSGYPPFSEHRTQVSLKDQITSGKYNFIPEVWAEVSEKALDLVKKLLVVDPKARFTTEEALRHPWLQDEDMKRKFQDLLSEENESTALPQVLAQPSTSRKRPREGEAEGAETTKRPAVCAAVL

SW-620 [14] = assay: Concentration required to inhibit growth of SW620 (human colon cancer) cells in the presence of 10 uM of Compound 2e; assay type: functional, cell-based
SW-620 [15] = assay: Concentration required to inhibit growth of SW620 (human colon cancer) cells; assay type: functional, cell-based

Sequence of MAP/microtubule affinity-regulating kinase 3 (P27448 whole entry): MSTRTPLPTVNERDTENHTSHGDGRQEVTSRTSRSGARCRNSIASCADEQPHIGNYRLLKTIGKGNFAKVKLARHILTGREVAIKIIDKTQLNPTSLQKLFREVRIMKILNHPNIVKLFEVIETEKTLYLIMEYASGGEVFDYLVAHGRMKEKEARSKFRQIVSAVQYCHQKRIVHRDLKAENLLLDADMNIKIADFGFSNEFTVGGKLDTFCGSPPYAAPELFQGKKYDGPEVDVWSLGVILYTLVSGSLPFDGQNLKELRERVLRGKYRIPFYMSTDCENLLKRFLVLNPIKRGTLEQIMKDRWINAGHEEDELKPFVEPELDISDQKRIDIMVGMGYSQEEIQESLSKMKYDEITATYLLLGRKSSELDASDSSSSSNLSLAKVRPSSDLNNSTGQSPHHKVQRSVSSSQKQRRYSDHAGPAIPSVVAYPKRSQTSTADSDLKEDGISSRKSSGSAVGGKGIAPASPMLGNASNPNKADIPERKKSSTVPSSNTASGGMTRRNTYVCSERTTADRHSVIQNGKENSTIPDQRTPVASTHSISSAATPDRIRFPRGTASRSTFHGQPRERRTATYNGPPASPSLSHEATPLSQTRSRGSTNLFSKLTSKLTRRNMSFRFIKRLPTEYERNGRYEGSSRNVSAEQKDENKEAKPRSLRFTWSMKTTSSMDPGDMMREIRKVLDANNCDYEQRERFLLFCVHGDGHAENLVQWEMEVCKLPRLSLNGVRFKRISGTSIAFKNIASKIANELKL

CC1(COc2ccc(Cl)cc2NC(=O)Nc2cnc(C#N)cn2)COC1
IC50 [1]: > 10 µM
IC50 [2]: > 50 µM
IC50 [3]: 9.21 µM
IC50 [4]: > 50 µM
IC50 [5]: > 50 µM
EC50 (HeLa [6]): > 59 µM
IC50 [7]: > 50 µM
IC50 [8]: > 50 µM
IC50 [9]: 0.007 µM
IC50 (Aurora kinase A): > 10 µM
Ratio (HeLa [10]): >22
IC50 [11]: > 50 µM
EC50 (HeLa [12]): 2.6 µM

CN1CCC(Oc2ccc(Cl)cc2NC(=O)Nc2cnc(C#N)cn2)CC1
EC50 (HeLa [6]): 10.4 µM
IC50 [9]: 0.01 µM
Ratio (HeLa [10]): 1
EC50 (HeLa [12]): 10 µM

N#Cc1cnc(NC(=O)Nc2cc(Cl)ccc2OC2CCOC2)cn1 (stereo unspecified)
EC50 (HeLa [6]): 18.7 µM
IC50 [9]: 0.003 µM
Ratio (HeLa [10]): 3.6
EC50 (HeLa [12]): 5 µM

CC(CN(C)C)Oc1ccc(Cl)cc1NC(=O)Nc1cnc(C#N)cn1 (stereo unspecified)
IC50 [1]: 1.51 µM
IC50 [2]: 50 µM
IC50 [3]: > 50 µM
IC50 [4]: > 50 µM
IC50 [5]: > 50 µM
EC50 (HeLa [6]): 1.5 µM
IC50 [13]: 2.8 µM
IC50 [7]: > 50 µM
IC50 [8]: > 50 µM
IC50 [9]: 0.008 µM
IC50 (Aurora kinase A): 3.23 µM
Ratio (HeLa [10]): 3.7
IC50 [11]: 50 µM
EC50 (HeLa [12]): 0.4 µM

N#Cc1cnc(NC(=O)Nc2cc(Cl)ccc2OC2CCOCC2)cn1
EC50 (HeLa [6]): > 59 µM
IC50 [9]: 0.005 µM
Ratio (HeLa [10]): >1
EC50 (HeLa [12]): 37 µM

CC[C@@]1(O)C(=O)OCc2c1cc1n(c2=O)Cc2cc3ccccc3nc2-1 [CAMPTOTHECIN]
EC50 (SW-620 [14]): 0.00015 µM
EC50 (SW-620 [15]): 0.0012 µM
